Structures can show the parent of a compound that is named as a salt.
Assay: in vitro
Conditions: rat, gh3-tre-luc cells, AC50 (uM) modified / 1000
`Clc1ccc(Sc2cc(Cl)c(Cl)cc2Cl)cc1` [Tetrasul] gave a CC50 at 24 h of over 90 µM. In the case of `CCCCCCCCCCCOC(=O)c1ccccc1C(=O)OCCCCCCCCCCC` [Diundecyl phthalate], the CC50 at 24 h was over 50 µM. Work on `NS(=O)(=O)c1ccc(Cl)c(S(N)(=O)=O)c1` [Clofenamide] yielded a CC50 at 24 h of over 50 µM. In the case of `CN1C2=CC(=O)/C(=N\NC(N)=O)C=C2CC1S(=O)(=O)O` (stereo not drawn) [Carbazochrome sodium sulfonate], the CC50 at 24 h was over 50 µM. Work on `CC(=O)CC(c1ccc([N+](=O)[O-])cc1)c1c(O)c2ccccc2oc1=O` (stereo not drawn) [Acenocoumarol] yielded a CC50 at 24 h of over 20 µM. In the case of `CCCCOC(=O)c1ccc(O)cc1` [Butylparaben], the CC50 at 24 h was over 50 µM. Molecule `O=C(O)CCCCCCC(=O)O` [Octanedioic acid] has a CC50 at 24 h of over 90 µM. Molecule `CCCNC(C)C(=O)Nc1ccccc1C` (stereo not drawn) [Prilocaine hydrochloride] has a CC50 at 24 h of over 50 µM. With `C/C=C(\C)C(=O)OCc1ccccc1` [Benzyl tiglate] the CC50 at 24 h was over 90 µM. `Oc1ccc2c3c1O[C@H]1[C@@H](O)CC[C@@]4(O)[C@@H](C2)N(CC2CCC2)CC[C@]314` [Nalbuphine] gave a CC50 at 24 h of over 50 µM. `O=C(O)CC(=O)O` [Propanedioic acid] showed a CC50 at 24 h of over 90 µM. With `CO[C@]12CC[C@@]3(C[C@@H]1[C@](C)(O)C(C)(C)C)[C@H]1Cc4ccc(O)c5c4[C@@]3(CCN1CC1CC1)[C@H]2O5` [Buprenorphine hydrochloride] the CC50 at 24 h was 23.1 µM. Molecule `Cc1oc(-c2ccccc2)nc1CCOc1ccc(C[C@H](Nc2ccccc2C(=O)c2ccccc2)C(=O)O)cc1` [Farglitazar] has a CC50 at 24 h of 25 µM. Molecule `O=C(Nc1ccc(Cl)c(Cl)c1)c1cc(Cl)cc(Cl)c1O` [3,5-Dichlorosalicyl-3,4-dichloroanilide] has a CC50 at 24 h of 2.97 µM. For `O=C1C(Cl)C(CCl)CN1c1cccc(C(F)(F)F)c1` (stereo not drawn) [Flurochloridone], the CC50 at 24 h was over 90 µM. Work on `COc1cc(NS(C)(=O)=O)ccc1Nc1c2ccccc2nc2ccccc12` [Amsacrine hydrochloride] yielded a CC50 at 24 h of 0.432 µM. `CC(=NO)C(C)=NO` [Dimethylglyoxime] gave a CC50 at 24 h of over 90 µM. `N[C@@H]1C[C@H]1c1ccccc1` [Tranylcypromine hydrochloride] gave a CC50 at 24 h of over 50 µM. Work on `Brc1ccc(Oc2ccc(Br)cc2)cc1` [4,4'-Dibromodiphenyl ether] yielded a CC50 at 24 h of over 90 µM. Work on `C[C@@H]1CC[C@H]2C(C)(C)C3CC12CC[C@@]3(C)O` (single isomer, unassigned; (+)) [(+)-Cedrol] yielded a CC50 at 24 h of 71.6 µM. With `CCCCCCCCCCCCc1ccccc1` [Dodecylbenzene] the CC50 at 24 h was over 90 µM. `CC1=CC(=O)[C@H]2C[C@@H]1C2(C)C` [L-Verbenone] gave a CC50 at 24 h of over 90 µM. `C/C=C(/C(=C/C)c1ccc(O)cc1)c1ccc(O)cc1` [Dienestrol] gave a CC50 at 24 h of 16.1 µM. Work on `O=C(O)CCC(=O)C(=O)O` [alpha-Ketoglutaric acid] yielded a CC50 at 24 h of over 90 µM. `CCCCCCCC(=O)Cl` [Caprylyl chloride] showed a CC50 at 24 h of over 90 µM. For `C=CC(=O)OCCCCCCCC(C)C` [Isodecyl acrylate], the CC50 at 24 h was over 90 µM. Molecule `N=C(N)N/N=C/c1c(Cl)cccc1Cl` [Guanabenz] has a CC50 at 24 h of 20.8 µM. With `NS(=O)(=O)c1cc2c(cc1Cl)N=CNS2(=O)=O` [Chlorothiazide] the CC50 at 24 h was over 90 µM. `COc1ccc(CN2CCN(C(c3ccc(F)cc3)c3ccc(F)cc3)CC2)c(OC)c1OC` [Lomerizine dihydrochloride] showed a CC50 at 24 h of 10.5 µM. With `N=C(N)NCCC[C@H](N)C(=O)O` [L-Arginine] the CC50 at 24 h was over 50 µM. In the case of `O=P(O)(O)CCCl` [Ethephon], the CC50 at 24 h was over 90 µM. Work on `Cc1cc(Cl)ccc1O` [4-Chloro-2-methylphenol] yielded a CC50 at 24 h of over 90 µM. Molecule `CC/C=C\CCCCCO` [(6Z)-Non-6-en-1-ol] has a CC50 at 24 h of over 90 µM. Molecule `CC(C)=O` [Acetone] has a CC50 at 24 h of over 90 µM. `CC(=O)O[C@H]1CC[C@H]2[C@@H]3CCC4=CC(=O)CCC4=C3C=C[C@]12C` [Trenbolone acetate] showed a CC50 at 24 h of over 50 µM. For `COC(OC)C(C)c1ccccc1` (stereo not drawn) [2-Phenylpropionaldehyde dimethyl acetal], the CC50 at 24 h was over 90 µM. In the case of `COc1ccc2[nH]c([S+]([O-])Cc3ncc(C)c(OC)c3C)nc2c1` (stereo not drawn) [Omeprazole], the CC50 at 24 h was over 90 µM. `Cc1ncc2n1-c1ccc(Cl)cc1C(c1ccccc1F)=NC2` [Midazolam hydrochloride] showed a CC50 at 24 h of over 50 µM. With `CC(C)(C)c1ccc(N)cc1` [4-tert-Butylaniline] the CC50 at 24 h was over 90 µM. For `C=CC(=O)OCCCCCC` [Hexyl acrylate], the CC50 at 24 h was over 90 µM. `CC(C)(C)C(O)/C(=C\c1ccc(Cl)cc1Cl)n1cncn1` (stereo not drawn) [Diniconazole] gave a CC50 at 24 h of 73.4 µM. `CCNC(=O)N1CCN(CCCC(c2ccc(F)cc2)c2ccc(F)cc2)CC1` [Amperozide hydrochloride] gave a CC50 at 24 h of 19.7 µM. Molecule `Cc1ccsc1C(=CCCN1CCC[C@@H](C(=O)O)C1)c1sccc1C` [Tiagabine hydrochloride] has a CC50 at 24 h of over 50 µM. For `N#CCCOCCOCCC#N` [3,3'-(Ethylenedioxy)dipropiononitrile], the CC50 at 24 h was over 90 µM. `CCNC(=O)C1CC(C)CCC1C(C)C` (stereo not drawn) [N-Ethyl-4-menthane-3-carboxamide] showed a CC50 at 24 h of over 90 µM. Work on `Cc1ccc(S(=O)(=O)N=C=O)cc1` [p-Toluenesulphonyl isocyanate] yielded a CC50 at 24 h of over 90 µM. Molecule `CCOC(=O)C(C)C(C)=O` (stereo not drawn) [Ethyl-2-methyl acetoacetate] has a CC50 at 24 h of over 90 µM. `CNC(=O)Oc1ccccc1OC(C)C` [Propoxur] gave a CC50 at 24 h of over 90 µM. For `Cc1cccc(C)c1NC(=O)/N=C1\CCCN1C` [Xilobam], the CC50 at 24 h was over 50 µM. With `CC1(C)[C@H](C=C(Cl)Cl)[C@H]1C(=O)OCc1c(F)c(F)cc(F)c1F` [Transfluthrin] the CC50 at 24 h was over 50 µM. With `CCCCC(C=O)CC` (stereo not drawn) [2-Ethylhexanal] the CC50 at 24 h was over 90 µM. Work on `Cc1cc(O)c(C(C)(C)C)cc1C(C)(C)C` [4,6-Di-tert-butyl-m-cresol] yielded a CC50 at 24 h of 22.6 µM. With `CC(C)[C@H](N)C(=O)OCCOCn1cnc2c(=O)[nH]c(N)nc21` [Valacyclovir hydrochloride] the CC50 at 24 h was over 50 µM. Molecule `CC12CCC(CC1)C(C)(C)O2` [1,8-Cineol] has a CC50 at 24 h of over 90 µM. Molecule `CCCCCCCCCC` [Decane] has a CC50 at 24 h of over 90 µM. With `COc1ccc(C(=O)c2ccc(OC)cc2O)c(O)c1` [2,2'-Dihydroxy-4,4'-dimethoxybenzophenone] the CC50 at 24 h was over 90 µM. `CC(=O)C1C(=O)C=C(C)OC1=O` (stereo not drawn) [Dehydroacetic acid] showed a CC50 at 24 h of over 90 µM. For `OC1CCCC1` [Cyclopentanol], the CC50 at 24 h was over 90 µM. In the case of `O=C1CCC(=O)O1` [Succinic anhydride], the CC50 at 24 h was over 90 µM. With `CCN(CC)c1cccc(O)c1` [3-Diethylaminophenol] the CC50 at 24 h was over 90 µM. `C/C=C1\C(=O)C[C@H]2[C@@H]3CCC4=CC(=O)CC[C@]4(C)[C@H]3CC[C@]12C` [Guggulsterone Z] showed a CC50 at 24 h of over 50 µM. For `CC(=O)O[C@]1(C(C)=O)CC[C@H]2[C@@H]3C=C(Cl)C4=CC(=O)[C@@H]5C[C@@H]5[C@]4(C)[C@H]3CC[C@@]21C` [Cyproterone acetate], the CC50 at 24 h was 66.8 µM. Molecule `CCOc1ccc2c(c1)C(C)CC(C)(C)N2` (stereo not drawn) has a CC50 at 24 h of over 90 µM. In the case of `Nc1c(Cl)c(F)nc(OCC(=O)O)c1Cl` [Fluroxypyr], the CC50 at 24 h was over 90 µM. `O=C1C=C2C=C[C@@H]3C[C@@]2(O1)[C@H]1CCCCN31` [Securinine] gave a CC50 at 24 h of 15.3 µM. `OC(c1ccc(F)cc1)(c1cncnc1)c1ccccc1Cl` (stereo not drawn) [Nuarimol] gave a CC50 at 24 h of over 90 µM. `FC(F)(F)C(=NOCC1OCCO1)c1ccc(Cl)cc1` [Fluxofenim] gave a CC50 at 24 h of over 90 µM.

Same assay, conditions: rat, gh3-tre-luc cells, AC50 (uM) modified / 1000, Tox21_110001=Tox21_110149; viability, 1 nM T3 present, 24 h
For `CCCCc1ccc(C(=O)O)nc1` [Fusaric acid], the CC50 at 24 h was over 50 µM.

Same assay, conditions: rat, gh3-tre-luc cells, AC50 (uM) modified / 1000, Tox21_110001=Tox21_110893; viability, 1 nM T3 present, 24 h
`C[C@]12CCC(=O)C=C1CC[C@@H]1[C@@H]2CC[C@]2(C)C(=O)CC[C@@H]12` [4-Androstene-3,17-dione] showed a CC50 at 24 h of over 50 µM.

Same assay, conditions: rat, gh3-tre-luc cells, AC50 (uM) modified / 1000, Tox21_110001=Tox21_111517; viability, 1 nM T3 present, 24 h
`C=CCC1(C(C)CCC)C(=O)N=C(S)NC1=O` (stereo not drawn) [Thiamylal sodium] gave a CC50 at 24 h of over 50 µM.

Same assay, conditions: rat, gh3-tre-luc cells, AC50 (uM) modified / 1000, Tox21_110001=Tox21_112083; viability, 1 nM T3 present, 24 h
With `O=c1[nH]c(=O)n(Cl)c(=O)n1Cl` [Sodium dichloroisocyanurate] the CC50 at 24 h was over 50 µM.

Same assay, conditions: rat, gh3-tre-luc cells, AC50 (uM) modified / 1000, Tox21_110001=Tox21_113078; viability, 1 nM T3 present, 24 h
With `CC(C)C[C@H]1C(=O)N2CCC[C@H]2[C@]2(O)O[C@](NC(=O)[C@@H]3C[C@@H]4c5cccc6[nH]cc(c56)C[C@H]4N(C)C3)(C(C)C)C(=O)N12` [Dihydroergocriptine] the CC50 at 24 h was 39.2 µM.

Same assay, conditions: rat, gh3-tre-luc cells, AC50 (uM) modified / 1000, Tox21_110001=Tox21_200685; viability, 1 nM T3 present, 24 h
`O=C(Cc1ccccc1)OCc1ccccc1` [Benzyl phenylacetate] showed a CC50 at 24 h of over 90 µM.

Same assay, conditions: rat, gh3-tre-luc cells, AC50 (uM) modified / 1000, Tox21_110001=Tox21_200689; viability, 1 nM T3 present, 24 h
Work on `C[C@]12CC[C@H]3[C@@H](CCC4=CC(=O)CC[C@@]43C)[C@@H]1CC[C@@H]2O` [Testosterone] yielded a CC50 at 24 h of over 90 µM.

Same assay, conditions: rat, gh3-tre-luc cells, AC50 (uM) modified / 1000, Tox21_110001=Tox21_201451; viability, 1 nM T3 present, 24 h
`CNC(=O)N(C)c1nnc(C(C)(C)C)s1` [Tebuthiuron] showed a CC50 at 24 h of over 90 µM.

Same assay, conditions: rat, gh3-tre-luc cells, AC50 (uM) modified / 1000, Tox21_110001=Tox21_201464; viability, 1 nM T3 present, 24 h
With `Cc1ccc([N+](=O)[O-])cc1` [4-Nitrotoluene] the CC50 at 24 h was over 90 µM.

Same assay, conditions: rat, gh3-tre-luc cells, AC50 (uM) modified / 1000, Tox21_110001=Tox21_201593; viability, 1 nM T3 present, 24 h
Work on `CCCCOCCOP(=O)(OCCOCCCC)OCCOCCCC` [Tris(2-butoxyethyl) phosphate] yielded a CC50 at 24 h of over 90 µM.

Same assay, conditions: rat, gh3-tre-luc cells, AC50 (uM) modified / 1000, Tox21_110001=Tox21_201601; viability, 1 nM T3 present, 24 h
For `O=c1[nH]c(=O)n(Cl)c(=O)n1Cl` [Sodium dichloroisocyanurate], the CC50 at 24 h was over 90 µM.

Same assay, conditions: rat, gh3-tre-luc cells, AC50 (uM) modified / 1000, Tox21_110001=Tox21_202269; viability, 1 nM T3 present, 24 h
For `C[C@]12CCC(=O)C=C1CC[C@@H]1[C@@H]2CC[C@]2(C)C(=O)CC[C@@H]12` [4-Androstene-3,17-dione], the CC50 at 24 h was over 90 µM.

Same assay, conditions: rat, gh3-tre-luc cells, AC50 (uM) modified / 1000, Tox21_110001=Tox21_301751; viability, 1 nM T3 present, 24 h
Work on `COP(=O)(OC)O/C(=C\Cl)c1cc(Cl)c(Cl)cc1Cl` [Z-Tetrachlorvinphos] yielded a CC50 at 24 h of over 90 µM.

Same assay, conditions: rat, gh3-tre-luc cells, AC50 (uM) modified / 1000, Tox21_110001=Tox21_302891; viability, 1 nM T3 present, 24 h
In the case of `CCCCOCCOP(=O)(OCCOCCCC)OCCOCCCC` [Tris(2-butoxyethyl) phosphate], the CC50 at 24 h was 58.5 µM.
